{"source": "patent US6558712B1", "about": "“Delivery system for pharmaceutical, nutritional and cosmetic ingredients” (Natreon Inc., priority 2001, dated 2003)", "key": {"[1]": {"test_system": "albino rats, made partially diabetic by administering streptozotocin", "assay": "Hypoglycaemic action (plasma glucose level) in albino rats made partially diabetic by streptozotocin", "type": "in vivo, rat", "conditions": "Gb 1.0 mg/kg, water-suspension, p.o., n=10", "text": "(§1) Glibenclamide (Gb) is an oral hypoglycaemic agent of the sulfonyl urea group; however it is only sparingly soluble in water."}, "[2]": {"text": "as §1"}, "[3]": {"test_system": "albino rats", "assay": "Analgetic effect in albino rats, oral", "type": "in vivo, rat", "conditions": "Ptz alone, up to 240 mg/kg, p.o."}, "[4]": {"test_system": "human volunteers", "assay": "Analgetic effect in human volunteers, oral", "type": "in vivo", "conditions": "Ptz alone, 50 mg oral"}, "[5]": {"conditions": "oral; background statement, species not given; cited from earlier work"}, "[6]": {"test_system": "Streptozocin (Stz)-induced diabetic (SID) rats", "assay": "Plasma glucose level lowering in streptozocin-induced diabetic (SID) rats", "type": "in vivo, rat", "protocol": "Streptozocin (Stz)-induced diabetic (SID) rats were used for this study. Insulin (I, 1.0 U/kg, p.o.) produed only marginal lowering (<10%) of plasma glucose level (PGL) in SID rats. […] By contrast, purified fulvic acid-insulin compositions (0.25 U/kg+10 mg/kg, p.o.) produced a 25% lowering, and Fulvic Acid-Insulin compositions (0.5 U/kg+10 mg/kg, p.o.) produced a 38% lowering of PGL in SID rates. The effect lasted for 6 hours."}}}
{"molecule": "COc1ccc(Cl)cc1C(=O)NCCc1ccc(S(=O)(=O)NC(=O)NC2CCCCC2)cc1", "note": "[Gb, Glibenclamide]", "values": [{"measurement": "blood sugar lowering effect", "setting": "[1]", "result": "did not exhibit any noticeable blood sugar lowering effect"}, {"measurement": "solubility in water", "setting": "[2]", "result": "10-12%"}]}
{"molecule": "CC(C)=CCN1CCC2(C)c3cc(O)ccc3CC1C2C", "note": "(stereo not shown) [Ptz, Pentazocin]", "values": [{"measurement": "analgetic effect", "setting": "[3]", "result": "does not exhibit any analgetic effect"}, {"measurement": "analgetic effect compared with codeine", "setting": "[4]", "result": "effective analgetic equivalent to 60 mg of codeine"}, {"measurement": "duration of analgesia", "setting": "[4]", "result": 120, "unit": "min"}, {"measurement": "time of onset of analgesia", "setting": "[4]", "result": 60, "unit": "min"}, {"measurement": "bioavailability, administered orally", "setting": "[5]", "result": "30-35%"}]}
{"molecule": "Insulin", "values": [{"measurement": "PGL lowering effect", "setting": "[6]; insulin 0.25 U/kg p.o.", "result": "did not exhibit any PGL lowering effect"}, {"measurement": "PGL lowering effect", "setting": "[6]; insulin 0.5 U/kg p.o.", "result": "did not exhibit any PGL lowering effect"}, {"measurement": "lowering of plasma glucose level (PGL)", "setting": "[6]; insulin 1.0 U/kg, p.o.", "result": "< 10", "unit": "%"}]}
